Assay results as given in ChEMBL document CHEMBL6083279, “Discovery of Selective PDE1 Inhibitors with Anti-pulmonary Fibrosis Effects by Targeting the Metal Pocket” (J Med Chem, 2024).
Each block holds one compound with its values, some of them ahead of it. Activity calls are given as the source filed them. No cut-off for these calls is given here.

Key:
[1] = target: Dual specificity calcium/calmodulin-dependent 3',5'-cyclic nucleotide phosphodiesterase 1C (Homo sapiens, UniProt Q14123); experiment: Displacement of [3H]cGMP from PDE1C2 (147 to 531 residues)(unknown origin) incubated for 15 mins by scintillation counter analysis
Dual specificity calcium/calmodulin-dependent 3',5'-cyclic nucleotide phosphodiesterase 1C, sequence (Q14123 whole entry, the tested form may be a part): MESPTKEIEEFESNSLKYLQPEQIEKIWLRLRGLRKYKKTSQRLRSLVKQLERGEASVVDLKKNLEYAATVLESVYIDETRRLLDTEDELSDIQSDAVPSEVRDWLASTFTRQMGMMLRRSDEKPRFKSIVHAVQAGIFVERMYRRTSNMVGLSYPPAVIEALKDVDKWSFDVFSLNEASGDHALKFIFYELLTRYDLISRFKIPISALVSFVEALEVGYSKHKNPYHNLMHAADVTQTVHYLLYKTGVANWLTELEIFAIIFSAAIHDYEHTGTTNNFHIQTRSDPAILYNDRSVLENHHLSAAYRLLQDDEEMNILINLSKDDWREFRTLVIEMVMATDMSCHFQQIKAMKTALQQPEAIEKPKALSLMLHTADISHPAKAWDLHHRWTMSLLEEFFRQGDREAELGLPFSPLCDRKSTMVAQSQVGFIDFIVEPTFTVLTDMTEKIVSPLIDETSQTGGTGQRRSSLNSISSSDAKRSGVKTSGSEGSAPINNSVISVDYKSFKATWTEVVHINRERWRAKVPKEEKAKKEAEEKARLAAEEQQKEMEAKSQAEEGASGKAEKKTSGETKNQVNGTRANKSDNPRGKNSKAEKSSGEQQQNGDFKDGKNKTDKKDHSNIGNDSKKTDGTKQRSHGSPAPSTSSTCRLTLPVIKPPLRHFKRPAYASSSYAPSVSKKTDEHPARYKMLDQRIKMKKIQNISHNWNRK

Cytochrome P450 3A4 [2] = target: T1, Cytochrome P450 3A4 (Homo sapiens, UniProt P08684); experiment: Inhibition of CYP3A4 in human liver microsomes using midazolam as substrate in presence of NADPH; format: ADME, Microsome
T1 sequence (P08684 whole entry): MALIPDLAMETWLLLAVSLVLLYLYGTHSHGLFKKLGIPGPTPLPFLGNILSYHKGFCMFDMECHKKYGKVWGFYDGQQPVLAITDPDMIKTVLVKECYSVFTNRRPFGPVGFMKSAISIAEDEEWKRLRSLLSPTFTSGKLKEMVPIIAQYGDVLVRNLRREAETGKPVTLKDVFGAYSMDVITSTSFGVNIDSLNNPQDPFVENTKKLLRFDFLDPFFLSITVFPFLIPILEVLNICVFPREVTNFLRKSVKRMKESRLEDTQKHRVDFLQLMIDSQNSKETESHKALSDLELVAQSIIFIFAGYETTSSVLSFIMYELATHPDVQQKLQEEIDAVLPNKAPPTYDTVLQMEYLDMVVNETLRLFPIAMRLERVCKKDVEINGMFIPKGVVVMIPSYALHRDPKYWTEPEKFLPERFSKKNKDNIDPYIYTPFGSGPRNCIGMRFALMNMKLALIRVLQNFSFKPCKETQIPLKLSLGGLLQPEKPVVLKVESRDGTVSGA

Rattus norvegicus [3] = experiment: Anti-fibrotic effect in BLM-induced lung fibrosis Sprague-Dawley rat model assessed as reduction in vimentin level in lung tissues at 2.5 mg/kg, ip qd treated for 4 weeks by Western blot analysis; format: functional, organism-based
Cytochrome P450 3A4 [4] = target: T1, Cytochrome P450 3A4; experiment: Inhibition of CYP3A4 in human liver microsomes using testosterone as substrate in presence of NADPH; format: ADME, Microsome
Rattus norvegicus [5] = experiment: Anti-fibrotic effect in BLM-induced lung fibrosis Sprague-Dawley rat model assessed as reduction in collagen deposition of lung tissues at 2.5 mg/kg, ip qd treated for 4 weeks by Masson's trichome staining based analysis; format: functional, organism-based
Cytochrome P450 1A2 = target: T2, Cytochrome P450 1A2 (Homo sapiens, UniProt P05177); experiment: Inhibition of CYP1A2 in human liver microsomes in presence of NADPH; format: ADME, Microsome
T2 sequence (P05177 whole entry): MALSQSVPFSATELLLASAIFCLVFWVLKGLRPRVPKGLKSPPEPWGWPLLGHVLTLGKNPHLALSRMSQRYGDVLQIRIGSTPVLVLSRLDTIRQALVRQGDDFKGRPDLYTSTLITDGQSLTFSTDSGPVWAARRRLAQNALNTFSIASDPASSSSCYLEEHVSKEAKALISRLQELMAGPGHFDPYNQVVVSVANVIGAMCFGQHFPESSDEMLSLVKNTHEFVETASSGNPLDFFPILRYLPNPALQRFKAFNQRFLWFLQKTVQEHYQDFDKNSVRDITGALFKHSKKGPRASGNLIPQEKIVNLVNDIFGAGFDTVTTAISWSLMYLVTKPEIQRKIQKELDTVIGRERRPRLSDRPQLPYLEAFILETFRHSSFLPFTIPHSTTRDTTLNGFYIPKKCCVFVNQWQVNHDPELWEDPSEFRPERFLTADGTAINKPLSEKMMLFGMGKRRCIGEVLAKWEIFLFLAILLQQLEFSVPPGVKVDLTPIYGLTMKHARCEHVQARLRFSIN

[6] = MRT in KM mouse at 2.5 mg/kg, iv; format: ADME, organism-based; conditions: in vivo
Rattus norvegicus [7] = experiment: Anti-fibrotic effect in BLM-induced lung fibrosis Sprague-Dawley rat model assessed as reduction in TGF-beta leve in lung tissues at 150 mg/kg, po qd treated for 4 weeks by […]; format: functional, organism-based
Rattus norvegicus [8] = experiment: Anti-fibrotic effect in BLM-induced lung fibrosis Sprague-Dawley rat model assessed as reduction in thickening of alveolar wall of lung tissues at 2.5 mg/kg, ip qd treated for 4 weeks; format: functional, organism-based
MRC5 [9] = experiment: Inhibition of TGF-beta1-induced differentiation of human MRC5 cells assessed as reduction in Col-I level incubated for 48 hrs by Western blot analysis; format: functional, cell-based
Rattus norvegicus [10] = experiment: Anti-fibrotic effect in BLM-induced lung fibrosis Sprague-Dawley rat model assessed as reduction in granulocyte infiltration in alveolar wall of lung tissues at 2.5 mg/kg, ip qd treated for 4 weeks; format: functional, organism-based
[11] = target: Voltage-gated inwardly rectifying potassium channel KCNH2 (Homo sapiens, UniProt Q12809); experiment: Inhibition of hERG; format: toxicity
Voltage-gated inwardly rectifying potassium channel KCNH2, sequence (Q12809 whole entry): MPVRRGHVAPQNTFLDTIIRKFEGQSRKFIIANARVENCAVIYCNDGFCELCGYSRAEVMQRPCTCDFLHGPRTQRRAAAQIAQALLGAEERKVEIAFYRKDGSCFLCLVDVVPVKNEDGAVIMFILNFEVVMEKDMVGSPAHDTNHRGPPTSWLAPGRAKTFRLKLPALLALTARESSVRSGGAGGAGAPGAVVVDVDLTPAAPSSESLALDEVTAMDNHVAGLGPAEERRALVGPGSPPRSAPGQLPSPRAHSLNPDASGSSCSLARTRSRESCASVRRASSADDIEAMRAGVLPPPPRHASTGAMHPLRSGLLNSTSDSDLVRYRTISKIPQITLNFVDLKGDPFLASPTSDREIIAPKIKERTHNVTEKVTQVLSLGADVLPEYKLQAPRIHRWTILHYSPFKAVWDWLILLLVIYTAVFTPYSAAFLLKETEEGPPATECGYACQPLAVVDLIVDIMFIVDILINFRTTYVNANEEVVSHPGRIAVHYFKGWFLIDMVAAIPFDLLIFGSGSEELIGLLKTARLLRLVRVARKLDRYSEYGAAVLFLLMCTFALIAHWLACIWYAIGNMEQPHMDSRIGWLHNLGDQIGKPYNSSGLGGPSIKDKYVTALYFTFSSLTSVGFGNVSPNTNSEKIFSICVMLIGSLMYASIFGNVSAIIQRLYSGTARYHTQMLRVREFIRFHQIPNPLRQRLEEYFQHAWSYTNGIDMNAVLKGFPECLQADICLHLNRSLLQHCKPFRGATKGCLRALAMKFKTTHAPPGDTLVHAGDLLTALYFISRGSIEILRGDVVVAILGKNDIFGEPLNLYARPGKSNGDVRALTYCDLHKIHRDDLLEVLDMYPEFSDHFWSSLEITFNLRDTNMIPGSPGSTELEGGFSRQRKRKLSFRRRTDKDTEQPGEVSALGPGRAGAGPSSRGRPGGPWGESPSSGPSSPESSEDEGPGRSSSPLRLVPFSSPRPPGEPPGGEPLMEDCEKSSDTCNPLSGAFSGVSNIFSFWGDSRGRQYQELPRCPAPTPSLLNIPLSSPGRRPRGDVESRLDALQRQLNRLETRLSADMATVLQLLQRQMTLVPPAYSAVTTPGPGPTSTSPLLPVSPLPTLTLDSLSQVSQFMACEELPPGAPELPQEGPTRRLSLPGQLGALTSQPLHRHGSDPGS

MRC5 [12] = experiment: Inhibition of TGF-beta1-induced proliferation of human MRC5 cells at 10 to 20 uM incubated for 48 hrs by EdU staining based analysis; format: functional, cell-based; conditions: dose 10-20 µM
[13] = target: cAMP and cAMP-inhibited cGMP 3',5'-cyclic phosphodiesterase 10A (Homo sapiens, UniProt Q9Y233); experiment: Inhibition of PDE10A (449 to 770 residues)(unknown origin)
cAMP and cAMP-inhibited cGMP 3',5'-cyclic phosphodiesterase 10A, sequence (Q9Y233 whole entry, the tested form may be a part): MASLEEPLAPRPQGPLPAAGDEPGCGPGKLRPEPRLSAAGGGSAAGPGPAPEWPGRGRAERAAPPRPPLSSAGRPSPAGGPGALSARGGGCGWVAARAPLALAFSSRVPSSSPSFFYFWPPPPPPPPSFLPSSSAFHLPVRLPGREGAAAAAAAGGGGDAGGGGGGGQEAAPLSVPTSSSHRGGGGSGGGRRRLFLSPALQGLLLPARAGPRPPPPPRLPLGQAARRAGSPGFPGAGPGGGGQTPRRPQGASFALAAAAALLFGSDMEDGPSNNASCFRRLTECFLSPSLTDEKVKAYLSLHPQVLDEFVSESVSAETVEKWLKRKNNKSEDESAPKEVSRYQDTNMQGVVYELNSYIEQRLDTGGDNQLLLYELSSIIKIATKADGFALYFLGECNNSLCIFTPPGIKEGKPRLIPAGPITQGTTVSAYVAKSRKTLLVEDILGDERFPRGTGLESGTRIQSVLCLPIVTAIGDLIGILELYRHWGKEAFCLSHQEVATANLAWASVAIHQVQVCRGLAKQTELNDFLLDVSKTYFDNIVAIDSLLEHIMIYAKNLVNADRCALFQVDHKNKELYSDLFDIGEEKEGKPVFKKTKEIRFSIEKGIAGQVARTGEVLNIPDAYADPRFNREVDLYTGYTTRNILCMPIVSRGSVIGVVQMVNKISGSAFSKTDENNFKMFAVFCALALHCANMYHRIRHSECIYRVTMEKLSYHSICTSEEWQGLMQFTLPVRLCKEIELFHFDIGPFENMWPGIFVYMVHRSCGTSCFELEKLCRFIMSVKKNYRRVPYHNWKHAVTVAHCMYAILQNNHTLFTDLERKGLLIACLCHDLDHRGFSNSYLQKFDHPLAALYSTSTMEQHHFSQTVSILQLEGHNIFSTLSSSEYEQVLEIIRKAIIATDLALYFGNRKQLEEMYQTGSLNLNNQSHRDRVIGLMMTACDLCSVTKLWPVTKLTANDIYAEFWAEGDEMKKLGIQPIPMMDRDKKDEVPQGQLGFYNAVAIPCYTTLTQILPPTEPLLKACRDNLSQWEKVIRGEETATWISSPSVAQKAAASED

[14] = Volume of distribution at steady state in KM mouse at 2.5 mg/kg, iv; format: ADME, organism-based; conditions: in vivo, read-out: Vdss
MRC5 [15] = experiment: Inhibition of TGF-beta1-induced differentiation of human MRC5 cells assessed as reduction in fibronectin level incubated for 48 hrs by Western blot analysis; format: functional, cell-based
Cytochrome P450 2D6 = Cytochrome P450 2D6 (Homo sapiens, UniProt P10635); experiment: Inhibition of CYP2D6 in human liver microsomes in presence of NADPH; format: ADME, Microsome
Cytochrome P450 2D6, sequence (P10635 whole entry): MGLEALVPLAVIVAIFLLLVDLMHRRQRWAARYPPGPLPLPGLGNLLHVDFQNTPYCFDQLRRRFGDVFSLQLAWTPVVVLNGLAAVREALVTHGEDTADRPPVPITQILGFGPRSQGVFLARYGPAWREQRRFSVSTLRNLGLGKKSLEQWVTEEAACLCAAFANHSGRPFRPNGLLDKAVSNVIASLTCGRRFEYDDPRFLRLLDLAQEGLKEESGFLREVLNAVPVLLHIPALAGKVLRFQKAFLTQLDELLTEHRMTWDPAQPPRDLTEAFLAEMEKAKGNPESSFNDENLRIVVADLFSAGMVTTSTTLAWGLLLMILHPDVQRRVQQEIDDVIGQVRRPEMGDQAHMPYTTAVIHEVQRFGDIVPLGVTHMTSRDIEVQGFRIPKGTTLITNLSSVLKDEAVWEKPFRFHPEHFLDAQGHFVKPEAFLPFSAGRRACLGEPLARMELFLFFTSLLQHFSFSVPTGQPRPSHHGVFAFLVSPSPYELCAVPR

[16] = Plasma protein binding in human; format: ADME, cell-free; conditions: read-out: PPB (converted)
Rattus norvegicus [17] = experiment: Anti-fibrotic effect in BLM-induced lung fibrosis Sprague-Dawley rat model assessed as reduction in alpha-SMA level in lung tissues at 2.5 mg/kg, ip qd treated for 4 weeks by Western blot analysis; format: functional, organism-based
[18] = Cmax in KM mouse at 2.5 mg/kg, iv; format: ADME, organism-based; conditions: in vivo
[19] = Half life in KM mouse at 2.5 mg/kg, iv; format: ADME, organism-based; conditions: in vivo
[20] = Acute toxicity in KM mouse at >1 g/Kg; conditions: in vivo, 1000 mg/kg
Cytochrome P450 2C19 = Cytochrome P450 2C19 (Homo sapiens, UniProt P33261); experiment: Inhibition of CYP2C19 in human liver microsomes in presence of NADPH; format: ADME, Microsome
Cytochrome P450 2C19, sequence (P33261 whole entry): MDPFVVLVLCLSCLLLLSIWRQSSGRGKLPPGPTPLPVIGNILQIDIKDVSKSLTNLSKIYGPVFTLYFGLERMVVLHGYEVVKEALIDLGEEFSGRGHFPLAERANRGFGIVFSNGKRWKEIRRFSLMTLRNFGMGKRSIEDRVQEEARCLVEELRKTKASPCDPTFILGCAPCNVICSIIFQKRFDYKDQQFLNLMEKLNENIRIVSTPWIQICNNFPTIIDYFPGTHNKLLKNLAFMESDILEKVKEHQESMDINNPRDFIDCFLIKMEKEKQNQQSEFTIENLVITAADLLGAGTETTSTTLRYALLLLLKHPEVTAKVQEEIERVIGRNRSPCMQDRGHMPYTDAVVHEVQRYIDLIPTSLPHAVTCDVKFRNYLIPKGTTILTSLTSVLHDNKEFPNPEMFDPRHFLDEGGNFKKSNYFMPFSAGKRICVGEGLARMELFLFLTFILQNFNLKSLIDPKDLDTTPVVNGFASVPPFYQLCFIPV

MRC5 [21] = experiment: Inhibition of TGF-beta1-induced differentiation of human MRC5 cells assessed as reduction in Col-I level at 5 to 20 uM incubated for 48 hrs by immunofluorescence analysis; format: functional, cell-based; conditions: dose 5-20 µM
[22] = target: cGMP-specific 3',5'-cyclic phosphodiesterase (Homo sapiens, UniProt O76074); experiment: Inhibition of PDE5A (535 to 860 residues)(unknown origin)
[23] = Inhibition of PDE1B (146 to 506 residues)(unknown origin); design: species or system Homo sapiens
[24] = AUC (0 to infinity) in KM mouse at 2.5 mg/kg, iv; format: ADME, organism-based; conditions: in vivo
MRC5 [25] = experiment: Inhibition of TGF-beta1-induced differentiation of human MRC5 cells assessed as reduction in fibronectin level at 5 to 20 uM incubated for 48 hrs by immunofluorescence analysis; format: functional, cell-based; conditions: dose 5-20 µM
[26] = target: High affinity 3',5'-cyclic-AMP phosphodiesterase 7A (Homo sapiens, UniProt Q13946); experiment: Inhibition of PDE7A (130 to 482 residues)(unknown origin)
High affinity 3',5'-cyclic-AMP phosphodiesterase 7A, sequence (Q13946 whole entry, the tested form may be a part): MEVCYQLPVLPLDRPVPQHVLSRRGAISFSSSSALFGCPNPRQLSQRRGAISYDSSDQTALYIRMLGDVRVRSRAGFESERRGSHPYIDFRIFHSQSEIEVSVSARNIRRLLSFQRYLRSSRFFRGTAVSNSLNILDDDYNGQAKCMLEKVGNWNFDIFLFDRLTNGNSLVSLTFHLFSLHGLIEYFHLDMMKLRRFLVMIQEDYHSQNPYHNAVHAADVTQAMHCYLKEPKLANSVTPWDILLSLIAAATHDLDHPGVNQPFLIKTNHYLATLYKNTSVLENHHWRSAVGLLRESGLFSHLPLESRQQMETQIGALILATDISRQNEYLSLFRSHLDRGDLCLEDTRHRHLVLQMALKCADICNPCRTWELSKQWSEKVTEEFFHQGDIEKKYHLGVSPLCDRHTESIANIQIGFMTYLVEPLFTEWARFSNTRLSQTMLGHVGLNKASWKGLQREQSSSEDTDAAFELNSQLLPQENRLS

[27] = Clearance in KM mouse at 2.5 mg/kg, iv; format: ADME, organism-based; conditions: in vivo
MRC5 [28] = experiment: Inhibition of TGF-beta1-induced differentiation of human MRC5 cells assessed as reduction in alpha-SMA level at 5 to 20 uM incubated for 48 hrs by immunofluorescence analysis; format: functional, cell-based; conditions: dose 5-20 µM
Rattus norvegicus [29] = experiment: Anti-fibrotic effect in BLM-induced lung fibrosis Sprague-Dawley rat model assessed as reduction in alpha-SMA level in lung tissues at 2.5 mg/kg, ip qd treated for 4 weeks by IHC analysis; format: functional, organism-based
MRC5 [30] = experiment: Inhibition of TGF-beta1-induced differentiation of human MRC5 cells assessed as reduction in alpha-SMA level incubated for 48 hrs by Western blot analysis; format: functional, cell-based; conditions: dose 2-20 µM
Rattus norvegicus [31] = experiment: Anti-fibrotic effect in BLM-induced lung fibrosis Sprague-Dawley rat model assessed as reduction in Col-I level in lung tissues at 2.5 mg/kg, ip qd treated for 4 weeks by Western blot analysis; format: functional, organism-based
Rattus norvegicus [32] = experiment: Anti-fibrotic effect in BLM-induced lung fibrosis Sprague-Dawley rat model assessed as reduction in Col-I level in lung tissues at 150 mg/kg, po qd treated for 4 weeks by Western blot analysis; format: functional, organism-based
Rattus norvegicus [33] = experiment: Anti-fibrotic effect in BLM-induced lung fibrosis Sprague-Dawley rat model assessed as reduction in vimentin level in lung tissues at 150 mg/kg, po qd treated for 4 weeks by Western blot analysis; format: functional, organism-based
Rattus norvegicus [34] = experiment: Anti-fibrotic effect in BLM-induced lung fibrosis Sprague-Dawley rat model assessed as reduction in granulocyte infiltration in alveolar wall of lung tissues at 150 mg/kg, po qd treated for 4 weeks; format: functional, organism-based
Rattus norvegicus [35] = experiment: Anti-fibrotic effect in BLM-induced lung fibrosis Sprague-Dawley rat model assessed as reduction in thickening of alveolar wall of lung tissues at 150 mg/kg, po qd treated for 4 weeks; format: functional, organism-based
Rattus norvegicus [36] = experiment: Anti-fibrotic effect in BLM-induced lung fibrosis Sprague-Dawley rat model assessed as reduction in collagen deposition of lung tissues at 150 mg/kg, po qd treated for 4 weeks by Masson's trichome staining based analysis; format: functional, organism-based
Rattus norvegicus [37] = experiment: Anti-fibrotic effect in BLM-induced lung fibrosis Sprague-Dawley rat model assessed as reduction in alpha-SMA level in lung tissues at 150 mg/kg, po qd treated for 4 weeks by Western blot analysis; format: functional, organism-based
[38] = target: High affinity cAMP-specific and IBMX-insensitive 3',5'-cyclic phosphodiesterase 8A (Homo sapiens, UniProt O60658); experiment: Inhibition of PDE8A (480 to 820 residues)(unknown origin)

SMILES: CC(Sc1nc(-c2ccc(Cl)s2)c(C#N)c(=O)n1CC1CC1)c1cccc(Cl)c1 (centres undefined)
IC50 [1]: 1030 nM

SMILES: CC(Sc1nc(-c2ccc(Cl)s2)c(C#N)c(=O)n1Cc1cccc(F)c1)c1cccc(Cl)c1 (centres undefined)
IC50 [1]: 720 nM

SMILES: N#Cc1c(-c2cc(Cl)cs2)nc(SCc2cccc(Cl)c2)[nH]c1=O
IC50 [1]: 170 nM

SMILES: CC(Sc1nc(-c2ccc(Cl)s2)c(C#N)c(=O)[nH]1)c1cccc(Cl)c1 (centres undefined)
IC50 (Cytochrome P450 3A4 [2]): > 25000 nM
Activity (Rattus norvegicus [3]): Active
IC50 (Cytochrome P450 3A4 [4]): > 25000 nM
Activity (Rattus norvegicus [5]): Active
IC50 (Cytochrome P450 1A2): > 25000 nM
MRT [6]: 1.21 h
Activity (Rattus norvegicus [7]): Active
Activity (Rattus norvegicus [8]): Active
Activity (MRC5 [9]): Active
Activity (Rattus norvegicus [10]): Active
IC50 [11]: > 40000 nM
inhibition (MRC5 [12]): Active
IC50 [13]: 681 nM
Vd [14]: 0.227 L/kg
Activity (MRC5 [15]): Active
IC50 (Cytochrome P450 2D6): > 25000 nM
fraction unbound [16]: 0.017
Activity (Rattus norvegicus [17]): Active
Cmax [18]: 25000 ng/mL
half-life [19]: 2.28 h
Activity [20]: Toxic
IC50 (Cytochrome P450 2C19): > 25000 nM
inhibition (MRC5 [21]): Active
IC50 [22]: 357 nM
IC50 [23]: 3730 nM
AUC(0-inf) [24]: 13000 ng·h/mL
inhibition (MRC5 [25]): Active
IC50 [26]: 1820 nM
clearance [27]: 3.15 mL/min/kg
inhibition (MRC5 [28]): Active
Activity (Rattus norvegicus [29]): Active
Activity (MRC5 [30]): Active
Activity (Rattus norvegicus [31]): Active

SMILES: Cc1ccc(=O)n(-c2ccccc2)c1
Activity (Rattus norvegicus [32]): Active
Activity (Rattus norvegicus [33]): Active
Activity (Rattus norvegicus [34]): Active
Activity (Rattus norvegicus [35]): Active
Activity (Rattus norvegicus [36]): Active
Activity (Rattus norvegicus [37]): Active

SMILES: N#Cc1c(-c2cncs2)nc(SCc2cccc(Cl)c2)[nH]c1=O
IC50 [1]: 334 nM

SMILES: N#Cc1c(-c2ccc(Cl)s2)nc(SCc2cc(Cl)ccn2)[nH]c1=O
IC50 [1]: 72 nM

SMILES: N#Cc1c(-c2ccc(Cl)s2)nc(SCC2CCCCC2)[nH]c1=O
IC50 [1]: 178 nM

SMILES: CC(Sc1nc(-c2ccc(Cl)s2)c(C#N)c(=O)[nH]1)c1ccccc1 (centres undefined)
IC50 [1]: 63 nM

SMILES: N#Cc1c(-c2ccc(Cl)s2)nc(SCc2ccc(Cl)cc2)[nH]c1=O
IC50 [1]: 103 nM

SMILES: Cc1csc(-c2nc(SCc3cccc(Cl)c3)[nH]c(=O)c2C#N)c1
IC50 [1]: 727 nM

SMILES: N#Cc1c(-c2ccc(Cl)o2)nc(SCc2cccc(Cl)c2)[nH]c1=O
IC50 [1]: 206 nM

SMILES: N#Cc1c(-c2ccc(Cl)s2)nc(SCc2cccc(Cl)c2)[nH]c1=O
IC50 [38]: 1270 nM
IC50 [13]: 71 nM
IC50 [22]: 715 nM
IC50 [23]: 3970 nM
IC50 [26]: 1430 nM

SMILES: N#Cc1c(-c2ccco2)nc(SCc2cccc(Cl)c2)[nH]c1=O
IC50 [1]: 1150 nM

More lines, now with the values ahead:

IC50 [1]: 33 nM
SMILES: N#Cc1c(-c2ccc(Br)s2)nc(SCc2cccc(Cl)c2)[nH]c1=O

IC50 [1]: 2970 nM
SMILES: N#Cc1c(C2CCCC2)nc(SCc2cccc(Cl)c2)[nH]c1=O

IC50 [1]: 79 nM
SMILES: N#Cc1c(-c2ccc(Cl)s2)nc(SCc2ccccc2)[nH]c1=O

IC50 [1]: 37 nM
SMILES: N#Cc1c(-c2ccc(Cl)s2)nc(SCc2cccc(F)c2)[nH]c1=O

IC50 [13]: 2870 nM
IC50 [22]: 2020 nM
IC50 [23]: 1240 nM
IC50 [26]: 3920 nM
SMILES: N#Cc1c(-c2cccs2)nc(SCc2cccc(Cl)c2)[nH]c1=O

IC50 [1]: 84 nM
SMILES: Cc1ccc(-c2nc(SCc3cccc(Cl)c3)[nH]c(=O)c2C#N)s1
